Test results as given in patent US9745305B2, “Modulators of methyl modifying enzymes, compositions and uses thereof” (Constellation Pharmaceuticals, Inc., priority 2013, dated 2017).
Where two headings read alike, the source gives them in different places.

Key:
[1] = molecular target: Y641N EZH2 (Homo sapiens, UniProt Q15910, Y641N); experiment: Assay for Y641N EZH2 (as the EZH2 assay, H3K27Me2 oligonucleosomes as substrate); format: biochemical; conditions: Y641N EZH2 mutant, reconstituted H3K27Me2 oligonucleosomes as substrate
Y641N EZH2, sequence (Q15910 whole entry Y641N): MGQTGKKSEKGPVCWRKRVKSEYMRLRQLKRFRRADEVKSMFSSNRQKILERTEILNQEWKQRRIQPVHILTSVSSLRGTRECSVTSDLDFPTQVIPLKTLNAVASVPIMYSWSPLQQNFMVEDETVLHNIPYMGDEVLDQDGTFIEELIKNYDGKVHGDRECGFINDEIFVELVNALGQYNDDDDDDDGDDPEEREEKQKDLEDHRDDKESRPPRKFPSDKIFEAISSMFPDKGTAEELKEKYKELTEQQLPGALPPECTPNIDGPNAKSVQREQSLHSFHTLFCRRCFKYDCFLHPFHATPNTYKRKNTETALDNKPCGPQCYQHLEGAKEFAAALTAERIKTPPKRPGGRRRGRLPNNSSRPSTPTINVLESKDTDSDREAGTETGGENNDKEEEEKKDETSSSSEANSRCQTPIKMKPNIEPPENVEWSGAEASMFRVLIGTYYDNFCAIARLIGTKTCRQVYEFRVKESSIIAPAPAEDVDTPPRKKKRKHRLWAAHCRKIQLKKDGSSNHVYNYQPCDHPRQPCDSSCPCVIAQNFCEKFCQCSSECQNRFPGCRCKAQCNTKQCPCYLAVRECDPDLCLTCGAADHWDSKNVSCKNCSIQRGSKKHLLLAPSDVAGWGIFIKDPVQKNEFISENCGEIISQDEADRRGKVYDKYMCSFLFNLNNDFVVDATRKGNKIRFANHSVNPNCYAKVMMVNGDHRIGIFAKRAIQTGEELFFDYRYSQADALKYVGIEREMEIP
Y641N EZH2, sequence (O75530 whole entry partner): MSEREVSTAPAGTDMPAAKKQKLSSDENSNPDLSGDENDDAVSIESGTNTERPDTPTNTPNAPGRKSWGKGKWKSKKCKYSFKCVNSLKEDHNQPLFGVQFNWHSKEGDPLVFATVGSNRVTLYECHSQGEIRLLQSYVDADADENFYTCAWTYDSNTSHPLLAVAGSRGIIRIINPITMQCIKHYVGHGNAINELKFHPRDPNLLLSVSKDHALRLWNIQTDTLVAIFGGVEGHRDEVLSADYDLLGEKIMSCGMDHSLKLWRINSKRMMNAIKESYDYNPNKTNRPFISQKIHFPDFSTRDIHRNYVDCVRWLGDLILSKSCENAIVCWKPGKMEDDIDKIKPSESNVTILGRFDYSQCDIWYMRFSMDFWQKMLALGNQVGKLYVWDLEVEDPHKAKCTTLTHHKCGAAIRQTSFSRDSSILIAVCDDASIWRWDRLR
Y641N EZH2, sequence (Q15022 whole entry partner): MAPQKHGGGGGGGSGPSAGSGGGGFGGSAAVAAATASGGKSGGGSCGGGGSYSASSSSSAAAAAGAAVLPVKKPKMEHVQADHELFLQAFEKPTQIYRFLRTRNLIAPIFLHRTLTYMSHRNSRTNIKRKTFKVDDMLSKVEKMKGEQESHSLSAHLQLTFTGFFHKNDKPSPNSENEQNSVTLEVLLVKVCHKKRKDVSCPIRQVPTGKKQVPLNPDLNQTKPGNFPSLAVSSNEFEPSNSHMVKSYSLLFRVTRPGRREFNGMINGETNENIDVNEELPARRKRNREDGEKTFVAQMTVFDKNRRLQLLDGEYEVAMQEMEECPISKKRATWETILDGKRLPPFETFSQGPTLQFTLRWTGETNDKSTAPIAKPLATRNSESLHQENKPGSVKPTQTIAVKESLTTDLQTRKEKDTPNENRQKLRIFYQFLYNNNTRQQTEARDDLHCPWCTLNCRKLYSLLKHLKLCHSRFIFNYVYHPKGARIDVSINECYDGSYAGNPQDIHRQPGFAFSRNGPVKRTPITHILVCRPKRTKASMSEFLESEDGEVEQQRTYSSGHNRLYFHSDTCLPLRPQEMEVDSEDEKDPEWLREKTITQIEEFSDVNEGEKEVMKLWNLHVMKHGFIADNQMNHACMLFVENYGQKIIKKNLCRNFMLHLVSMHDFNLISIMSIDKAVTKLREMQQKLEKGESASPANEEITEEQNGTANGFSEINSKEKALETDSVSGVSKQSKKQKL
Outline: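 rPRC2 (2 nM EZH2) with 0.2 μM reconstituted H3K27Me2 biotinylated oligonucleosomes, 3.6 μM H3K27me3 peptide, 0.2 μM ^3H SAM in Tris pH 8.5; compounds (80 to 0.16 μM, 2-fold) pre-incubated 20 min, reaction 60 min, SAH/EDTA quench. Tritiated product captured on streptavidin plates, scintillation counted; IC50 from 4-parameter fit.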

[2] = molecular target: EZH2 (Homo sapiens, UniProt Q15910); experiment: EZH2 Assay (3H SAM methyl transfer, rPRC2, FlashPlate); format: biochemical; conditions: rPRC2, biotinylated oligonucleosomes, 0.2 μM 3H SAM, 2 nM EZH2
EZH2, sequence (Q15910 whole entry): as the sequence (Q15910 whole entry Y641N) above, with N641Y counted along it
EZH2, sequence (O75530 whole entry partner): as the sequence (O75530 whole entry partner) above
EZH2, sequence (Q15022 whole entry partner): as the sequence (Q15022 whole entry partner) above
Outline: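 rPRC2 (2 nM EZH2) was preincubated 20 min with compound (80 to 0.16 μM, 10 points), then reacted 60 min with 0.2 μM ³H-SAM, 0.2 μM biotinylated oligonucleosomes and 3.6 μM H3K27me3 peptide at pH 8.5. Methylated product was captured on SAV FlashPlates and counted, and IC50 came from a 4-parameter fit.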

[3] = system: H3K27me3 mark in Hela cells expressing wild type EZH2; experiment: H3K27me3 MSD Hela Assay; format: cell-based; conditions: read-out: H3K27me3_MSD_HeLa (EC50)
Experimental: H3K27me3 MSD Hela Assay. Trypsinized HeLa cells were counted and diluted in 10% DMEM (Life Technologies, Cat. #10569) to 5000 cells/75 μL. Seventy-five μL of cells were place in each well of a 96-well flat-bottomed plate and incubated at 37° C. for 4 hours. Twenty-five μL of test compound (at various concentrations) was added to the cells and incubation continued at 37° C. for 96 hours. Media was then removed and the cells rinsed once with ice cold PBS. Forty μL of ice-cold MSD Buffer AT (10 mM HEPES, pH 7.9, 5 mM MgCl2, 0.25M sucrose, Benzonase (1:10000), 1% Triton X-100 supplemented with fresh 1× Protease Inhibitor cocktail and 1 mM 4-(2-Aminoethyl)benzenesulfonyl fluoride hydrochloride (AEBSF)) was added to each well and the plates placed on ice for 30 minutes. Ten μL of 5M NaCl was then added to each well and incubation on ice continued for another 15 minutes. The material in each well was suspended pipetting up and down and then transferred to a new 96 well plate. The emptied wells were rinsed with 150 uL ice-cold 20 mM Tris pH 7.5, 1 mM EDTA, 1 mM EGTA, supplemented with fresh 1× Protease Inhibitor cocktail and 1 mM AEBSF (“NO salt NO detergent buffer) and transferred to the respective wells in the new plate. Three hundred μL of NO Salt NO detergent buffer was then added to each well of lysates and the plates frozen at −80° C.
On the same day, an appropriate number of MSD standard bind 96-well plates were coated with 30 μL/well of total H3 capture antibody (Millipore, Cat # MAB3422) at 1 μg/mL concentration in PBS. The antibody solution was evenly distributed first by tapping gently on the sides of the plates and then by shaking the plates for a few minutes at 1000 rpm. Antibody coated plates were stored at 4° C. overnight.
The next day the lysates are thawed to RT. The antibody coated MSD plates are washed 3× with TBS-T (Tris-buffered saline (Fisher Scientific, Cat #BP2471-1)+0.2% Tween-20). One-hundred fifty μL of 5% Blocker A in TBS-T is added to each well. The wells are covered and shaken on a shaker at RT for one hour. The Blocker A step is repeated a second time. After removing the blocker, 25 μL of cell lysate is transferred into each antibody coated well. The plates are shaken for 2 hours at RT, the lysate removed and the plates again washed with Blocker A in TBS-T. Twenty-five μL of appropriate freshly prepared antibody mix (including both primary and secondary antibodies) is added to each well and the plates shaken for 1 hour at RT.
Both H3 antibodies were obtained from Cell Signalling (Cat #s 4499 and 9733). The goat anti-rabbit antibody was obtained from Meso-Scale Discovery (Cat #R32AB-1).
The antibody mix was then removed and the wells washed with Blocker A. One hundred-fifty μL of freshly prepared 1×MSD Read Buffer (Meso-Scale Discovery; Cat #R927C-2) was then added to each well and the plates read on a MSD Sector 2400 Plate Reader.
Data was analyzed using Assay Assistant (Constellation Pharmaceuticals In-house product) and Activity Base (IDBS Ltd, Surrey, UK) template. Data files were imported to Assay Assistant and assay conditions were specified. A unique Analysis ID was created and the data files exported to Activity Base. An analysis template was created on Activity Base to measure dose-dependent inhibition of H3K27me3 mark and cell viability respectively. Readout of DMSO wells were used to normalize the data. Resulting curves were fitted using Activity base software Model 205 (IDBS Ltd, Surrey, UK). The data was checked for quality, validated and integrated in excel format using SARview (IDBS Ltd, Surrey, UK).

IC50 [1] [nM]	IC50 [2] [nM]	EC50 ([3]; Homo sapiens, HeLa, 96 h) [nM]	EC50 ([3]; 96 hours) [nM]	SMILES
100 to 1000	< 100	2000 to 10000		COc1cc(C)[nH]c(=O)c1CNC(=O)c1c(C)c(C(C)NS(C)(=O)=O)n2ncccc12 (racemic) [Compound 112, (±)-N-((4-methoxy-6-methyl-2-oxo-1,2-dihydropyridin-3-yl)methyl)-6-methyl-7-(1-(methylsulfonamido)ethyl)pyrrolo[1,2-b]pyridazine-5-carboxamide]
< 100	< 100	< 400		COc1cc(C)[nH]c(=O)c1CNC(=O)c1c(C)c(C(C)c2cccnc2)n2ncccc12 (racemic) [Compound 113, (±)-N-((4-methoxy-6-methyl-2-oxo-1,2-dihydropyridin-3-yl)methyl)-6-methyl-7-(1-(pyridin-3-yl)ethyl)pyrrolo[1,2-b]pyridazine-5-carboxamide]
100 to 1000	< 100		2000 to 10000	CCN(C(C)c1c(C)c(C(=O)NCc2c(OC)cc(C)[nH]c2=O)c2cccnn12)S(C)(=O)=O (single isomer, unassigned) [Compound 107, (R or S)-7-(1-(N-ethylmethylsulfonamido)ethyl)-N-((4-methoxy-6-methyl-2-oxo-1,2-dihydropyridin-3-yl)methyl)-6-methylpyrrolo[1,2-b]pyridazine-5-carboxamide]
100 to 1000	< 100		400 to 2000	CCN(C(C)c1c(C)c(C(=O)NCc2c(OC)cc(C)[nH]c2=O)c2cccnn12)S(C)(=O)=O (single isomer, unassigned) [Compound 108, (R or S)-7-(1-(N-ethylmethylsulfonamido)ethyl)-N-((4-methoxy-6-methyl-2-oxo-1,2-dihydropyridin-3-yl)methyl)-6-methylpyrrolo[1,2-b]pyridazine-5-carboxamide]
100 to 1000	< 100	2000 to 10000		COc1cc(C)[nH]c(=O)c1CNC(=O)c1c(C)c(C(C)c2ccn(C)c(=O)c2)n2ncccc12 (stereo not drawn) [Compound 110, N-((4-methoxy-6-methyl-2-oxo-1,2-dihydropyridin-3-yl)methyl)-6-methyl-7-(1-(1-methyl-2-oxo-1,2-dihydropyridin-4-yl)ethyl)pyrrolo[1,2-b]pyridazine-5-carboxamide]
< 100	< 100	< 400		COc1cc(C)[nH]c(=O)c1CNC(=O)c1c(C)c(-c2c(C)noc2C)n2ncccc12 [Compound 114, 7-(3,5-dimethylisoxazol-4-yl)-N-((4-methoxy-6-methyl-2-oxo-1,2-dihydropyridin-3-yl)methyl)-6-methylpyrrolo[1,2-b]pyridazine-5-carboxamide]
